According to ChEMBL document CHEMBL1201862, “PubChem BioAssay data set” (2004):
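Tested at 5 concentrations; 48 h exposure; 96-well plates; endpoints linearly interpolated, else capped at highest concentration. GI50 is the concentration that inhibits growth by half.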 The source made the active and inactive calls. No stated cut-off is given here; in the data, active = GI50 up to about 1.1 µM and inactive = higher.

Legend:
Assay in all cases: growth of human tumour cells (NCI), 48 h
A498 = system: A498
ACHN = system: ACHN
TK-10 = system: TK-10
DU-145 = system: DU-145
KM12 = system: KM12
MDA-N = system: MDA-N
COLO 205 = system: COLO 205
UO-31 = system: UO-31
MOLT-4 = system: MOLT-4
SNB-19 = system: SNB-19
M14 = system: M14
NCI-H226 = system: NCI-H226
SF-539 = system: SF-539
EKVX = system: EKVX
NCI-H522 = system: NCI-H522
UACC-62 = system: UACC-62
UACC-257 = system: UACC-257
OVCAR-8 = system: OVCAR-8
786-0 = system: 786-0
RXF 393 = system: RXF 393
SK-MEL-5 = system: SK-MEL-5
OVCAR-4 = system: OVCAR-4
LOX IMVI = system: LOX IMVI
NCI-H23 = system: NCI-H23
T47D = system: T47D
SW-620 = system: SW-620
HL-60 = system: HL-60
OVCAR-3 = system: OVCAR-3
SF-295 = system: SF-295
SN12C = system: SN12C
K562 = system: K562
SK-MEL-28 = system: SK-MEL-28
A549 = system: A549
CCRF-CEM = system: CCRF-CEM
MDA-MB-435 = system: MDA-MB-435
MDA-MB-231 = system: MDA-MB-231
MCF7 = system: MCF7
HCT-116 = system: HCT-116
Malme-3M = system: Malme-3M
SF-268 = system: SF-268
NCI-H460 = system: NCI-H460
HOP-62 = system: HOP-62
HCC 2998 = system: HCC 2998
HT-29 = system: HT-29
IGROV-1 = system: IGROV-1
NCI/ADR-RES = system: NCI/ADR-RES
SK-OV-3 = system: SK-OV-3
OVCAR-5 = system: OVCAR-5
U-251 = system: U-251
CAKI-1 = system: CAKI-1
HCT-15 = system: HCT-15
RPMI-8226 = system: RPMI-8226
PC-3 = system: PC-3
SR = system: SR
SNB-75 = system: SNB-75

COc1ccc(-c2c(C(C)=O)c(-c3ccccc3)n(C3OC(CO)C(O)C(O)C3O)c(=S)c2C#N)cc1 (stereo unspecified)
GI50 (A498): > 100 µM (inactive) | GI50 (ACHN): > 100 µM (inactive) | GI50 (TK-10): > 100 µM (inactive) | GI50 (DU-145): > 100 µM (inactive) | GI50 (KM12): > 100 µM (inactive) | GI50 (MDA-N): > 100 µM (inactive) | GI50 (COLO 205): > 100 µM (inactive) | GI50 (UO-31): 4 µM (inactive) | GI50 (MOLT-4): > 100 µM (inactive) | GI50 (SNB-19): > 100 µM (inactive) | GI50 (M14): > 100 µM (inactive) | GI50 (NCI-H226): > 100 µM (inactive) | GI50 (SF-539): > 100 µM (inactive) | GI50 (EKVX): > 100 µM (inactive) | GI50 (NCI-H522): > 100 µM (inactive) | GI50 (UACC-62): 43.6 µM (inactive) | GI50 (UACC-257): > 100 µM (inactive) | GI50 (OVCAR-8): > 100 µM (inactive) | GI50 (786-0): > 100 µM (inactive) | GI50 (RXF 393): > 100 µM (inactive) | GI50 (SK-MEL-5): > 100 µM (inactive) | GI50 (OVCAR-4): > 100 µM (inactive) | GI50 (LOX IMVI): > 100 µM (inactive) | GI50 (NCI-H23): > 100 µM (inactive) | GI50 (T47D): > 100 µM (inactive) | GI50 (SW-620): > 100 µM (inactive) | GI50 (HL-60): > 100 µM (inactive) | GI50 (OVCAR-3): > 100 µM (inactive) | GI50 (SF-295): > 100 µM (inactive) | GI50 (SN12C): > 100 µM (inactive) | GI50 (K562): > 100 µM (inactive) | GI50 (SK-MEL-28): > 100 µM (inactive) | GI50 (A549): > 100 µM (inactive) | GI50 (CCRF-CEM): > 100 µM (inactive) | GI50 (MDA-MB-435): > 100 µM (inactive) | GI50 (MDA-MB-231): > 100 µM (inactive) | GI50 (MCF7): > 100 µM (inactive) | GI50 (HCT-116): > 100 µM (inactive) | GI50 (Malme-3M): > 100 µM (inactive) | GI50 (SF-268): > 100 µM (inactive) | GI50 (NCI-H460): > 100 µM (inactive) | GI50 (HOP-62): > 100 µM (inactive) | GI50 (HCC 2998): > 100 µM (inactive) | GI50 (HT-29): > 100 µM (inactive) | GI50 (IGROV-1): > 100 µM (inactive) | GI50 (NCI/ADR-RES): > 100 µM (inactive) | GI50 (SK-OV-3): > 100 µM (inactive) | GI50 (OVCAR-5): > 100 µM (inactive) | GI50 (U-251): > 100 µM (inactive) | GI50 (CAKI-1): > 100 µM (inactive) | GI50 (HCT-15): > 100 µM

c1ccc(COC[C@H]2O[C@@H](c3ccccc3)C[C@@H](OCc3ccccc3)C2OCc2ccccc2)cc1 (stereo partly specified)
GI50 (TK-10): > 10 µM (inactive) | GI50 (RPMI-8226): > 10 µM (inactive) | GI50 (DU-145): > 10 µM (inactive) | GI50 (KM12): > 10 µM (inactive) | GI50 (MDA-N): > 10 µM (inactive) | GI50 (PC-3): > 10 µM (inactive) | GI50 (COLO 205): > 10 µM (inactive) | GI50 (MOLT-4): > 10 µM (inactive) | GI50 (SR): > 10 µM (inactive) | GI50 (M14): > 10 µM (inactive) | GI50 (EKVX): > 10 µM (inactive) | GI50 (UACC-62): > 10 µM (inactive) | GI50 (OVCAR-8): > 10 µM (inactive) | GI50 (786-0): > 10 µM (inactive) | GI50 (RXF 393): > 10 µM (inactive) | GI50 (SK-MEL-5): > 10 µM (inactive) | GI50 (NCI-H23): > 10 µM (inactive) | GI50 (T47D): > 10 µM (inactive) | GI50 (SW-620): > 10 µM (inactive) | GI50 (SF-295): > 10 µM (inactive) | GI50 (SN12C): > 10 µM (inactive) | GI50 (SK-MEL-28): > 10 µM (inactive) | GI50 (A549): > 10 µM (inactive) | GI50 (CCRF-CEM): > 10 µM (inactive) | GI50 (MDA-MB-231): > 10 µM (inactive) | GI50 (MCF7): > 10 µM (inactive) | GI50 (Malme-3M): > 10 µM (inactive) | GI50 (SF-268): > 10 µM (inactive) | GI50 (HOP-62): > 10 µM (inactive) | GI50 (HCC 2998): > 10 µM (inactive) | GI50 (IGROV-1): > 10 µM (inactive) | GI50 (SK-OV-3): > 10 µM (inactive) | GI50 (SNB-75): > 10 µM (inactive) | GI50 (CAKI-1): > 10 µM (inactive) | GI50 (HCT-15): > 10 µM
